Numbers after ± are expanded uncertainties.
Settings: Liquid, Vibrating tube method

CC(C)OC(C)C [diisopropyl ether]
Settings | mass density [kg/m3]
283.15 K, 100 kPa | 733.83 ± 0.3
283.15 K, 5000 kPa | 739.6 ± 0.33
283.15 K, 10000 kPa | 744.9 ± 0.37
283.15 K, 15000 kPa | 749.85 ± 0.4
283.15 K, 20000 kPa | 754.49 ± 0.44
283.15 K, 25000 kPa | 758.89 ± 0.48
283.15 K, 30000 kPa | 763.08 ± 0.51
283.15 K, 35000 kPa | 767.08 ± 0.55
283.15 K, 40000 kPa | 770.91 ± 0.59
283.15 K, 45000 kPa | 774.59 ± 0.63
283.15 K, 50000 kPa | 778.13 ± 0.67
283.15 K, 55000 kPa | 781.56 ± 0.7
283.15 K, 60000 kPa | 784.88 ± 0.74
283.15 K, 65000 kPa | 788.07 ± 0.77
288.15 K, 100 kPa | 728.69 ± 0.3
288.15 K, 5000 kPa | 734.61 ± 0.33
288.15 K, 10000 kPa | 740.14 ± 0.37
288.15 K, 15000 kPa | 745.3 ± 0.41
288.15 K, 20000 kPa | 750.09 ± 0.44
288.15 K, 25000 kPa | 754.61 ± 0.48
288.15 K, 30000 kPa | 758.9 ± 0.52
288.15 K, 35000 kPa | 763.01 ± 0.56
288.15 K, 40000 kPa | 766.92 ± 0.6
288.15 K, 45000 kPa | 770.68 ± 0.64
288.15 K, 50000 kPa | 774.31 ± 0.67
288.15 K, 55000 kPa | 777.77 ± 0.71
288.15 K, 60000 kPa | 781.16 ± 0.75
288.15 K, 65000 kPa | 784.42 ± 0.78
293.15 K, 100 kPa | 723.51 ± 0.3
293.15 K, 5000 kPa | 729.62 ± 0.34
293.15 K, 10000 kPa | 735.37 ± 0.37
293.15 K, 15000 kPa | 740.69 ± 0.41
293.15 K, 20000 kPa | 745.62 ± 0.45
293.15 K, 25000 kPa | 750.29 ± 0.48
293.15 K, 30000 kPa | 754.71 ± 0.52
293.15 K, 35000 kPa | 758.91 ± 0.57
293.15 K, 40000 kPa | 762.93 ± 0.61
293.15 K, 45000 kPa | 766.78 ± 0.64
293.15 K, 50000 kPa | 770.48 ± 0.68
293.15 K, 55000 kPa | 774.06 ± 0.72
293.15 K, 60000 kPa | 777.49 ± 0.75
293.15 K, 65000 kPa | 780.83 ± 0.79
298.15 K, 100 kPa | 718.29 ± 0.3
298.15 K, 5000 kPa | 724.67 ± 0.34
298.15 K, 10000 kPa | 730.59 ± 0.37
298.15 K, 15000 kPa | 736.05 ± 0.41
298.15 K, 20000 kPa | 741.13 ± 0.45
298.15 K, 25000 kPa | 745.92 ± 0.49
298.15 K, 30000 kPa | 750.46 ± 0.53
298.15 K, 35000 kPa | 754.77 ± 0.57
298.15 K, 40000 kPa | 758.89 ± 0.61
298.15 K, 45000 kPa | 762.82 ± 0.65
298.15 K, 50000 kPa | 766.6 ± 0.69
298.15 K, 55000 kPa | 770.25 ± 0.73
298.15 K, 60000 kPa | 773.75 ± 0.76
298.15 K, 65000 kPa | 777.14 ± 0.8
303.15 K, 100 kPa | 713.03 ± 0.3
303.15 K, 5000 kPa | 719.61 ± 0.34
303.15 K, 10000 kPa | 725.79 ± 0.38
303.15 K, 15000 kPa | 731.48 ± 0.41
303.15 K, 20000 kPa | 736.81 ± 0.45
303.15 K, 25000 kPa | 741.76 ± 0.49
303.15 K, 30000 kPa | 746.43 ± 0.53
303.15 K, 35000 kPa | 750.85 ± 0.58
303.15 K, 40000 kPa | 755.09 ± 0.62
303.15 K, 45000 kPa | 759.12 ± 0.66
303.15 K, 50000 kPa | 763 ± 0.7
303.15 K, 55000 kPa | 766.7 ± 0.73
303.15 K, 60000 kPa | 770.24 ± 0.77
303.15 K, 65000 kPa | 773.7 ± 0.81
308.15 K, 100 kPa | 707.73 ± 0.3
308.15 K, 5000 kPa | 714.61 ± 0.34
308.15 K, 10000 kPa | 720.99 ± 0.38
308.15 K, 15000 kPa | 726.79 ± 0.42
308.15 K, 20000 kPa | 732.2 ± 0.46
308.15 K, 25000 kPa | 737.29 ± 0.49
308.15 K, 30000 kPa | 742.07 ± 0.54
308.15 K, 35000 kPa | 746.63 ± 0.58
308.15 K, 40000 kPa | 750.94 ± 0.62
308.15 K, 45000 kPa | 755.05 ± 0.67
308.15 K, 50000 kPa | 759.01 ± 0.71
308.15 K, 55000 kPa | 762.79 ± 0.74
308.15 K, 60000 kPa | 766.45 ± 0.78
308.15 K, 65000 kPa | 769.97 ± 0.82
313.15 K, 100 kPa | 702.38 ± 0.3
313.15 K, 5000 kPa | 709.64 ± 0.34
313.15 K, 10000 kPa | 716.16 ± 0.38
313.15 K, 15000 kPa | 722.17 ± 0.42
313.15 K, 20000 kPa | 727.77 ± 0.46
313.15 K, 25000 kPa | 732.97 ± 0.5
313.15 K, 30000 kPa | 737.92 ± 0.54
313.15 K, 35000 kPa | 742.55 ± 0.59
313.15 K, 40000 kPa | 746.98 ± 0.63
313.15 K, 45000 kPa | 751.2 ± 0.67
313.15 K, 50000 kPa | 755.21 ± 0.71
313.15 K, 55000 kPa | 759.09 ± 0.75
313.15 K, 60000 kPa | 762.83 ± 0.79
313.15 K, 65000 kPa | 766.39 ± 0.83
318.15 K, 100 kPa | 697.07 ± 0.3
318.15 K, 5000 kPa | 704.53 ± 0.34
318.15 K, 10000 kPa | 711.3 ± 0.38
318.15 K, 15000 kPa | 717.51 ± 0.42
318.15 K, 20000 kPa | 723.27 ± 0.46
318.15 K, 25000 kPa | 728.67 ± 0.5
318.15 K, 30000 kPa | 733.74 ± 0.55
318.15 K, 35000 kPa | 738.49 ± 0.59
318.15 K, 40000 kPa | 743.01 ± 0.64
318.15 K, 45000 kPa | 747.34 ± 0.68
318.15 K, 50000 kPa | 751.47 ± 0.72
318.15 K, 55000 kPa | 755.41 ± 0.76
318.15 K, 60000 kPa | 759.21 ± 0.8
318.15 K, 65000 kPa | 762.85 ± 0.83
323.15 K, 100 kPa | 691.61 ± 0.3
323.15 K, 5000 kPa | 699.42 ± 0.34
323.15 K, 10000 kPa | 706.46 ± 0.38
323.15 K, 15000 kPa | 712.89 ± 0.42
323.15 K, 20000 kPa | 718.83 ± 0.47
323.15 K, 25000 kPa | 724.38 ± 0.51
323.15 K, 30000 kPa | 729.58 ± 0.56
323.15 K, 35000 kPa | 734.45 ± 0.6
323.15 K, 40000 kPa | 739.08 ± 0.64
323.15 K, 45000 kPa | 743.5 ± 0.69
323.15 K, 50000 kPa | 747.72 ± 0.73
323.15 K, 55000 kPa | 751.72 ± 0.77
323.15 K, 60000 kPa | 755.59 ± 0.81
323.15 K, 65000 kPa | 759.26 ± 0.84
328.15 K, 100 kPa | 686.17 ± 0.3
328.15 K, 5000 kPa | 694.18 ± 0.34
328.15 K, 10000 kPa | 701.52 ± 0.39
328.15 K, 15000 kPa | 708.19 ± 0.43
328.15 K, 20000 kPa | 714.34 ± 0.47
328.15 K, 25000 kPa | 720.04 ± 0.51
328.15 K, 30000 kPa | 725.37 ± 0.56
328.15 K, 35000 kPa | 730.4 ± 0.61
328.15 K, 40000 kPa | 735.15 ± 0.65
328.15 K, 45000 kPa | 739.67 ± 0.69
328.15 K, 50000 kPa | 743.94 ± 0.74
328.15 K, 55000 kPa | 748.05 ± 0.78
328.15 K, 60000 kPa | 751.94 ± 0.82
328.15 K, 65000 kPa | 755.64 ± 0.85
333.15 K, 100 kPa | 681 ± 0.3
333.15 K, 5000 kPa | 688.97 ± 0.34
333.15 K, 10000 kPa | 696.58 ± 0.39
333.15 K, 15000 kPa | 703.52 ± 0.43
333.15 K, 20000 kPa | 709.85 ± 0.47
333.15 K, 25000 kPa | 715.73 ± 0.52
333.15 K, 30000 kPa | 721.21 ± 0.57
333.15 K, 35000 kPa | 726.36 ± 0.61
333.15 K, 40000 kPa | 731.23 ± 0.66
333.15 K, 45000 kPa | 735.85 ± 0.7
333.15 K, 50000 kPa | 740.18 ± 0.74
333.15 K, 55000 kPa | 744.38 ± 0.78
333.15 K, 60000 kPa | 748.24 ± 0.82
333.15 K, 65000 kPa | 752.02 ± 0.86

From the NIST ThermoML archive (doi:10.1016/j.fluid.2016.02.009)
